{
  "source": "patent US20220110902A1",
  "about": "“Methods of treating amyloid-beta peptide diseases” (Ecole Polytechnique Federale de Lausanne, priority 2016, published 2022)",
  "tested_on": "old C57BL/6J mice",
  "assay": "NR treatment of aged C57BL/6J mice: muscle amyloid, Oxphos proteins, MSR",
  "type": "in vivo, mouse",
  "description": "Young (1 month old) and aged (20-24 months old) C57BL/6JRj mice were purchased from Janvier Labs. APP/PSEN1 mice (Tg(APPswe,PSEN1dE9)85Dbo/Mmjax) were purchased from JAX. C57BL/6JR mice were fed with pellets containing vehicle or NR (400 mg/kg/day) for 6-8 weeks, while APP/PSEN1 mice were fed NR pellets for 10 weeks, starting at the age of 4 months. The pellets were prepared by mixing powdered chow diet (20165, Harlan Laboratories) with water or with NR dissolved in water. Pellets were dried under a laminar flow hood for 48 hours. Mice were housed by groups of 2 to 5 animals per cage and randomized to 7-8 animals per experimental group according to their body weight. No blinding was used during the experiment procedures. Mouse: Total RNA was extracted from tissues using TriPure RNA isolation reagent (Roche) according to the product manual. Expression of selected genes was analyzed using the LightCycler480 system (Roche) and LightCycler® 480 SYBR Green I Master reagent (Roche). The beta-2-Microglobulin B2m gene was used as housekeeping reference. Mouse: Frozen cortex tissue samples were lysed by mechanical homogenization with RIPA buffer containing protease and phosphatase inhibitors, and analyzed by SDS-PAGE and western blot. Subsequently, the concentration of extracted protein was determined by using the Bio-Rad Protein Assay. Proteins were detected using the following antibodies: HSP60 (Enzo Life Science), CLPP (Sigma), anti-GAPDH (14C10) (Cell Signaling), LONP1 (Sigma), PINK1 (Novus Biologicals), LC3 A/B (Cell Signaling), SDHB (Oxphos cocktail, Abcam), MTCO1 (Abcam), Ubiquitin (Enzo), P62 (BD Transduction Laboratories), Phopsho P62 (Cell Signaling), VDAC (Abcam), β-Amyloid, 17-24 (4G8) (BioLegend). In addition to the housekeeping proteins, loading was monitored by Ponceau Red to ensure a homogeneous loading. Antibody detection reactions for all the immunoblot experiments were developed by enhanced chemiluminescence (Advansta) and imaged using the c300 imaging system (Azure Biosystems). Pixel intensity was quantified by using ImageJ software. […]",
  "data": [
    {"smiles": "NC(=O)c1ccc[n+]([C@@H]2O[C@H](CO)[C@@H](O)[C@H]2O)c1", "note": "[NR, Nicotinamide Riboside triflate]", "values": [
      {"measurement": "SDHB and MTCO1 protein levels in muscle", "setting": "aged mice, NR 400 mg/kg/day for 6-8 weeks", "value": "partially restoring"},
      {"measurement": "A11- and 4G8 positive amyloid-like deposits in TA and forelimbs muscle", "setting": "old mice, NR 400 mg/kg/day in pellets for 6-8 weeks", "value": "marked reduction"},
      {"measurement": "expression of MSR signature genes in muscle", "setting": "quadriceps, NR 400 mg/kg/day for 6-8 weeks", "value": "increasing"}
    ]}
  ]
}
